According to article PMC11249953, “c-KIT inhibitors reduce pathology and improve behavior in the Tg(SwDI) model of Alzheimer’s disease” (Life Science Alliance, 2024):
Where “and” joins values, the source holds several entries; their conditions need not be identical. Equal values may be shown once.

Columns and labels:
PIP5K1A = target: T1, PIP5K1A (Homo sapiens, UniProt Q99755); test: KINOMEscan competition binding, PIP5K1A; details: 10 µM compound
T1 construct: DNA label for qPCR read-out (T7 phage fusion or DNA tag); purchased Eurofins DiscoverX Corporation; host or cells: T7 phage in E. coli (BL21-derived) or HEK-293
Experimental: The KINOMEscan screening platform (Eurofins DiscoverX Corporation) was performed using active site-directed competition binding assay to quantitatively measure interactions between BK40143 and BK40197 and more than 450 human kinases and disease relevant mutant variants. […] Screening “hits” are identified by measuring the amount of kinase captured in test (BK40143 and BK40197) versus control samples by using a quantitative and ultra-sensitive qRT-PCR method that detects the associated DNA label. BK40143 and BK40197 were screened at 10 µM concentration, and results for primary screen binding interactions were reported as “% Ctrl” (POC), where lower numbers indicate stronger hits and calculated as follows: [test compound signal−positive control signal/negative control signal−positive control signal]×100
negative control = DMSO (100% Ctrl)
positive control = control compound (0% Ctrl)
Based on screening data from of profiled compounds, a proportional relationship between primary screening results and corresponding compound/target affinities can be described as binding constants (Kd values) for the indicated ranges of POC values with tighter binding (higher affinity) interactions associated with lower POC values and weaker binding (lower affinity) associated with higher POC values. Briefly, kinase-tagged T7 phage strains were grown in parallel in 24-well blocks in an E. coli host derived from the BL21 strain. E. coli were grown to log-phase and infected with T7 phage from a frozen stock (multiplicity of infection = 0.4) and incubated with shaking at 32°C until lysis (90–150 min). The lysates were centrifuged (6,000g) and filtered (0.2 μm) to remove cell debris. The remaining kinases were produced in HEK-293 cells and subsequently tagged with DNA for qRT-PCR detection. Streptavidin-coated magnetic beads were treated with biotinylated small molecule ligands for 30 min at RT to generate affinity resins for kinase assays. The liganded beads were blocked with excess biotin and washed with blocking buffer (1% BSA, 0.05% Tween 20, 1 mM DTT; SeaBlock [Pierce]) to remove unbound ligand and to reduce non-specific phage binding. Binding reactions were assembled by combining kinases, liganded affinity beads, and test compounds in 1x binding buffer (20% 0.17x PBS, 0.05% Tween 20, 6 mM DTT; SeaBlock). Test compounds were prepared as 100x stocks in 100% DMSO and directly diluted into the assay. All reactions were performed in polypropylene 384-well plates in a final volume of 0.02 ml. The assay plates were incubated at RT with shaking for 1 h and the affinity beads were washed with wash buffer (1x PBS, 0.05% Tween 20). […] The kinase concentration in the eluates was measured by qRT-PCR.

mice [1] = test: Novel object recognition, source data sheet NOR (mouse line not given); type: in vivo; set-up: key to Probe: DI (Discrimination Index: Novel / Total) / Familiarization: DI / Familiarization: DI, group mean / Familiarization DI: DI = novel-object exploration time / total exploration time of both objects; Familiarization: Total / Familiarization B / Familiarization Total: unit not given here; details: for Familiarization: A (exploration of object A) / Familiarization: B (exploration of object B) / Familiarization: DI / Familiarization: Total / Probe: DI (Discrimination Index: Novel / Total) / Probe: Familiar / Probe: Novel / Probe: Total: individual mice
Experimental: Novel object recognition was carried out using a 50 × 50 cm arena with clear walls covered by brown construction paper. Mice were habituated to the room for 30 min each day, before being allowed to freely explore the arena for 5 min two times, for 3 d. On the 4th d, two identical objects were placed in the arena in opposite adjacent corners, 10 cm from the corner of the arena. Mice were placed along the wall opposite from the objects and allowed to freely explore for 10 min. Approach behavior (extending nose toward the object) toward both objects was recorded manually using handheld stop watches and compared with ensure there was no preference for either neutral object. For the probe trial, one object was removed and replaced with a novel object, and mice were again allowed to freely explore for 10 min, with approach time towards the novel and familiar objects recorded. Trials in which the mice explored for less than 1 s were excluded. Discrimination index was calculated by dividing time spent exploring the novel object by total time exploring both objects and was compared for treated versus control animals.

mice [2] = test: Nesting, source data sheets Nesting (mouse line not given); type: in vivo; set-up: key to Nesting Score AVG (of three observers) / Nesting Score AVG, group mean / Nesting Score / Nesting Score AVG: 0 = nestlet untouched to 5 = near perfect nest; key to Nesting Score (NICK) / Nesting Score (MICHAELINE) / Nesting Score(MAX) / Nesting Score (KORLISS): 0: nestlet untouched; 1: nestlet hardly touched (more than 90% intact); 2: nestlet partially torn (50–90% intact); 3: mostly shredded but no identifiable nest, less than 50% intact but less than 90% in a single quarter of the cage; 4: An identifiable but flat nest, more than 90% torn and material is gathered in a single quarter of the cage; 5: A near perfect nest, more than 90% of the nestlet is torn and the nest is a crater, with walls higher than the mouse body height; details: for Nesting Score AVG (of three observers) / Nestlet Weight / Nesting Score(MAX) / Nesting Score (MICHAELINE) / Nesting Score (NICK): individual mice, listed as 143; for Nestlet Weight: in g (unit assumed); for Nesting Score(MAX): observer MAX; for Nesting Score (MICHAELINE): observer MICHAELINE; for Nesting Score (NICK): observer NICK
Experimental: Mice were singly housed in standard cages overnight (6 pm–6 am) with a 3-gram cloth nestlet and allowed to freely behave. The next day, nestlets were weighed and photographed, and amount of nestlet shredding was recorded by three observers based on the following scale: 0—nestlet untouched, 1—nestlet hardly touched (more than 90% intact), 2—nestlet partially torn (50–90% intact), 3—mostly shredded but no identifiable nest, less than 50% intact but less than 90% in a single quarter of the cage, 4—An identifiable but flat nest, more than 90% torn and material is gathered in a single quarter of the cage, 5—A near perfect nest, more than 90% of the nestlet is torn and the nest is a crater, with walls higher than the mouse body height.

T1 sequence (Q99755 whole entry, the tested form may be a part): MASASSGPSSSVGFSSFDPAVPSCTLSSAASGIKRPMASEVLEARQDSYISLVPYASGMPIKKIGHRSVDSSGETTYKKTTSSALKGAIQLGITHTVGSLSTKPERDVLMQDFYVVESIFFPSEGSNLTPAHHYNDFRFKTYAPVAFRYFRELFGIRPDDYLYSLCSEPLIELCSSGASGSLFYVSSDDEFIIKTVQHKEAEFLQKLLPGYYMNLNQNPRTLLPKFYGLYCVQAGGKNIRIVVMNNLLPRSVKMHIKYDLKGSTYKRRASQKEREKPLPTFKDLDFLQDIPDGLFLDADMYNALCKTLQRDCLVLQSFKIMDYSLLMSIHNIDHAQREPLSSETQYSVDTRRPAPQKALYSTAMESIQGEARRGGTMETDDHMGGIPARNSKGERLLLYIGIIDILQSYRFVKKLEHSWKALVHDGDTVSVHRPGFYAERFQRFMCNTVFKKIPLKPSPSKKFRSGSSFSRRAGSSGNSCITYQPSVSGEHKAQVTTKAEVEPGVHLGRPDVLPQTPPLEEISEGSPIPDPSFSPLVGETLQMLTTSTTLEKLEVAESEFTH

Cc1cccc(-c2cc3nccc(Nc4ccccc4)c3s2)c1 [BK40143]
inhibition at 10 µM (PIP5K1A): 68%
remaining binding at 10 µM (PIP5K1A; lower = stronger binding, read-out: PIP5K1A %Ctrl @ 10000nM (POC)): 32%
Familiarization: DI, group mean (mice [1]; 2.5mg/kg): 0.4194
Probe: DI, group mean (mice [1]; 2.5mg/kg): 0.6322
Familiarization: A (exploration of object A) (mice [1]; 2.5mg/kg, listed as 143): 79.74 and 23.94 and 6.51 and 4.1 and 1.73 and 91.39 and 3.94
Familiarization: B (exploration of object B) (mice [1]; 2.5mg/kg, listed as 143): 36.19 and 20.07 and 19.62 and 23.82 and 2.46 and 58.89 and 9.8
Familiarization: DI (mice [1]; 2.5mg/kg, listed as 143): 0.6878 and 0.544 and 0.2491 and 0.1468 and 0.4129 and 0.6081 and 0.2868
Familiarization: Total (mice [1]; 2.5mg/kg, listed as 143): 115.93 and 44.01 and 26.13 and 27.92 and 4.19 and 150.28 and 13.74
Probe: DI (Discrimination Index: Novel / Total) (mice [1]; 2.5mg/kg, listed as 143): 0.6527 and 0.5219 and 0.7012 and 0.6866 and 0 and 0.6684 and 0.5624
Probe: Familiar (mice [1]; 2.5mg/kg, listed as 143): 12.56 and 26.64 and 26.04 and 10.96 and 0.71 and 19.02 and 21.52
Probe: Novel (mice [1]; 2.5mg/kg, listed as 143): 23.6 and 29.08 and 61.12 and 24.01 and 0 and 38.34 and 27.66
Probe: Total (mice [1]; 2.5mg/kg, listed as 143): 36.16 and 55.72 and 87.16 and 34.97 and 0.71 and 57.36 and 49.18
Familiarization: DI, group mean (mice [1]; 5.0mg/kg): 0.4517
Probe: DI, group mean (mice [1]; 5.0mg/kg): 0.5431
Familiarization: A (exploration of object A) (mice [1]; 5.0mg/kg, listed as 143): 6.57 and 57.74 and 55.12 and 0 and 31.22 and 2.26 and 24.68 and 3.81
Familiarization: B (exploration of object B) (mice [1]; 5.0mg/kg, listed as 143): 6.09 and 45.42 and 59.49 and 0 and 28.62 and 34.43 and 1.4 and 35.06 and 3.14
Familiarization: DI (mice [1]; 5.0mg/kg, listed as 143): 0.519 and 0.5597 and 0.4809 and 0 and 0.4756 and 0.6175 and 0.4131 and 0.5482
Familiarization: Total (mice [1]; 5.0mg/kg, listed as 143): 12.66 and 103.16 and 114.61 and 0 and 28.62 and 65.65 and 3.66 and 59.74 and 6.95
Probe: DI (Discrimination Index: Novel / Total) (mice [1]; 5.0mg/kg, listed as 143): 0.5491 and 0.4762 and 0.6019 and 0.4523 and 0.4543 and 0.6392 and 0.6671 and 0.5538 and 0.5229 and 0.5147
Probe: Familiar (mice [1]; 5.0mg/kg, listed as 143): 31.58 and 54.9 and 31.99 and 22.78 and 6.63 and 10.02 and 2.44 and 2.49 and 12.81 and 27.34
Probe: Novel (mice [1]; 5.0mg/kg, listed as 143): 38.46 and 49.91 and 48.36 and 18.81 and 5.52 and 17.75 and 4.89 and 3.09 and 14.04 and 29
Probe: Total (mice [1]; 5.0mg/kg, listed as 143): 70.04 and 104.81 and 80.35 and 41.59 and 12.15 and 27.77 and 7.33 and 5.58 and 26.85 and 56.34
Probe DI (mice [1]; Discrimination Index: Novel / Total, one value per mouse, listed as 143): 0.8287 and 0.6842 and 0.7687 and 1 and 0 and 0.615 and 0.4318 and 0.5747 and 0.1499 and 0.6797
Familiarization Total (mice [1]; novel object recognition, familiarization, A + B, one value per mouse, listed as 143): 4.02 and 1.72 and 5.39 and 2.97 and 7.23 and 16.69 and 3.49 and 11.99 and 18.68 and 5.99
Familiarization B (mice [1]; novel object recognition, familiarization, object B, one value per mouse, listed as 143): 4.02 and 0.91 and 0.51 and 1.41 and 5.2 and 7.29 and 2.89 and 7.23 and 11.16 and 3.62
Familiarization DI (mice [1]; novel object recognition, familiarization, one value per mouse, listed as 143): 0 and 0.4709 and 0.9054 and 0.5253 and 0.2808 and 0.5632 and 0.1719 and 0.397 and 0.4026 and 0.3957
Probe Familiar (mice [1]; novel object recognition, probe, familiar object, one value per mouse, listed as 143): 0.62 and 0.78 and 0.31 and 0 and 0.83 and 2.41 and 0.5 and 20.09 and 39.82 and 2.04
Probe Total (mice [1]; novel object recognition, probe, novel + familiar, one value per mouse, listed as 143): 3.62 and 2.47 and 1.34 and 5.82 and 0.83 and 6.26 and 0.88 and 47.24 and 46.84 and 6.37
Probe Novel (mice [1]; novel object recognition, probe, novel object, one value per mouse, listed as 143): 3 and 1.69 and 1.03 and 5.82 and 0 and 3.85 and 0.38 and 27.15 and 7.02 and 4.33
% Difference (mice [1]; probe DI minus familiarization DI, Exclude trials where mice explored <1s, one value per mouse, listed as 143): 82.8729% and 21.328% and -13.6724% and 47.4747% and 5.18% and 17.7727% and 28.4089%
Nesting Score AVG, group mean (mice [2]; 2.5mg/kg): 0.9048
Nesting Score AVG (of three observers) (mice [2]; 2.5mg/kg): 0 and 1.333 and 2.667 and 1
Nestlet Weight (mice [2]; 2.5mg/kg): 2.6 and 2.8 and 2.7 and 0.9 and 2.5
Nesting Score(MAX) (mice [2]; 2.5mg/kg): 0 and 2 (nestlet partially torn (50–90% intact)) and 3 (mostly shredded but no identifiable nest, less than 50% intact but less than 90% in a single quarter of the cage) and 1 (nestlet hardly touched (more than 90% intact))
Nesting Score (MICHAELINE) (mice [2]; 2.5mg/kg): 0 and 1 (nestlet hardly touched (more than 90% intact)) and 2 (nestlet partially torn (50–90% intact))
Nesting Score (NICK) (mice [2]; 2.5mg/kg): 0 and 1 (nestlet hardly touched (more than 90% intact)) and 3 (mostly shredded but no identifiable nest, less than 50% intact but less than 90% in a single quarter of the cage)
Nesting Score AVG, group mean (mice [2]; 5.0mg/kg): 1.067
Nesting Score AVG (of three observers) (mice [2]; 5.0mg/kg): 1.333 and 0.3333 and 1 and 2 and 0.6667 and 3.667 and 0
Nestlet Weight (mice [2]; 5.0mg/kg): 2.5 and 2.7 and 2.1 and 2.6 and 2.9 and 0
Nesting Score(MAX) (mice [2]; 5.0mg/kg): 2 (nestlet partially torn (50–90% intact)) and 1 (nestlet hardly touched (more than 90% intact)) and 4 and 0
Nesting Score (MICHAELINE) (mice [2]; 5.0mg/kg): 1 (nestlet hardly touched (more than 90% intact)) and 0 and 2 (nestlet partially torn (50–90% intact)) and 3 (mostly shredded but no identifiable nest, less than 50% intact but less than 90% in a single quarter of the cage)
Nesting Score (NICK) (mice [2]; 5.0mg/kg): 1 (nestlet hardly touched (more than 90% intact)) and 0 and 2 (nestlet partially torn (50–90% intact)) and 4
